In paper PMC12310023 (PLOS Neglected Tropical Diseases, 2025):

Tested on: NLuc-expressing C. parvum
Assay: NLuc C. parvum IFNγ-KO mouse infection model, oocyst shedding
Format: in vivo

Structure (SMILES): CC(C)(CO)Cn1nc(-c2ccc3cc(OC4CC4)ccc3c2)c(C(N)=O)c1N [compound 1708]
- RLU Raw (8 mg/kg QD x3, group I, Day 6, Cp Mouse Efficacy 1): 754480 RLU
- RLU Raw (8 mg/kg QD x3, group I, Day 7, Cp Mouse Efficacy 1): 2842576 RLU
- RLU Raw (8 mg/kg QD x3, group I, Day 8, Cp Mouse Efficacy 1): 17367584 RLU
- RLU Raw (8 mg/kg QD x3, group I, Day 9, Cp Mouse Efficacy 1): 4938000 RLU
- RLU Raw (8 mg/kg QD x3, group I, Day 10, Cp Mouse Efficacy 1): 9525504 RLU
- RLU Raw (8 mg/kg QD x3, group I, Day 13, Cp Mouse Efficacy 1): 2717520 RLU
- RLU Raw (8 mg/kg QD x3, group I, Day 15, Cp Mouse Efficacy 1): 2626944 RLU
- RLU Raw (8 mg/kg QD x3, group I, Day 17, Cp Mouse Efficacy 1): 5999920 RLU
- RLU Raw (8 mg/kg QD x3, group I, Day 20, Cp Mouse Efficacy 1): 14563168 RLU
- RLU standardized by fecal weight (8 mg/kg QD x3, group I, day 6 p.i., Cp Mouse Efficacy 1): 118816 RLU
- RLU standardized by fecal weight (8 mg/kg QD x3, group I, day 7 p.i., Cp Mouse Efficacy 1): 653466 RLU
- RLU standardized by fecal weight (8 mg/kg QD x3, group I, day 8 p.i., Cp Mouse Efficacy 1): 4135139 RLU
- RLU standardized by fecal weight (8 mg/kg QD x3, group I, day 9 p.i., Cp Mouse Efficacy 1): 1371667 RLU
- RLU standardized by fecal weight (8 mg/kg QD x3, group I, day 10 p.i., Cp Mouse Efficacy 1): 1763982 RLU
- RLU standardized by fecal weight (8 mg/kg QD x3, group I, day 13 p.i., Cp Mouse Efficacy 1): 414889 RLU
- RLU standardized by fecal weight (8 mg/kg QD x3, group I, day 15 p.i., Cp Mouse Efficacy 1): 314604 RLU
- RLU standardized by fecal weight (8 mg/kg QD x3, group I, day 17 p.i., Cp Mouse Efficacy 1): 909079 RLU
- RLU standardized by fecal weight (8 mg/kg QD x3, group I, day 20 p.i., Cp Mouse Efficacy 1): 1879118 RLU
- RLU Raw (15 mg/kg QD x3, group H, Day 6, Cp Mouse Efficacy 1): 464960 RLU
- RLU Raw (15 mg/kg QD x3, group H, Day 7, Cp Mouse Efficacy 1): 131248 RLU
- RLU Raw (15 mg/kg QD x3, group H, Day 8, Cp Mouse Efficacy 1): 447488 RLU
- RLU Raw (15 mg/kg QD x3, group H, Day 9, Cp Mouse Efficacy 1): 45888 RLU
- RLU Raw (15 mg/kg QD x3, group H, Day 10, Cp Mouse Efficacy 1): 5216 RLU
- RLU Raw (15 mg/kg QD x3, group H, Day 13, Cp Mouse Efficacy 1): 1120 RLU
- RLU Raw (15 mg/kg QD x3, group H, Day 15, Cp Mouse Efficacy 1): 6784 RLU
- RLU Raw (15 mg/kg QD x3, group H, Day 17, Cp Mouse Efficacy 1): 944 RLU
- RLU Raw (15 mg/kg QD x3, group H, Day 20, Cp Mouse Efficacy 1): 848 RLU
- RLU standardized by fecal weight (15 mg/kg QD x3, group H, day 6 p.i., Cp Mouse Efficacy 1): 86104 RLU
- RLU standardized by fecal weight (15 mg/kg QD x3, group H, day 7 p.i., Cp Mouse Efficacy 1): 18617 RLU
- RLU standardized by fecal weight (15 mg/kg QD x3, group H, day 8 p.i., Cp Mouse Efficacy 1): 49446 RLU
- RLU standardized by fecal weight (15 mg/kg QD x3, group H, day 9 p.i., Cp Mouse Efficacy 1): 4543 RLU
- RLU standardized by fecal weight (15 mg/kg QD x3, group H, day 10 p.i., Cp Mouse Efficacy 1): 1391 RLU
- RLU standardized by fecal weight (15 mg/kg QD x3, group H, day 13 p.i., Cp Mouse Efficacy 1): 89 RLU
- RLU standardized by fecal weight (15 mg/kg QD x3, group H, day 15 p.i., Cp Mouse Efficacy 1): 665 RLU
- RLU standardized by fecal weight (15 mg/kg QD x3, group H, day 17 p.i., Cp Mouse Efficacy 1): 115 RLU
- RLU standardized by fecal weight (15 mg/kg QD x3, group H, day 20 p.i., Cp Mouse Efficacy 1): 86 RLU
- RLU Raw (15 mg/kg x 1 days, group G, Day 6, Cp Mouse Efficacy 2): 267600 RLU
- RLU Raw (15 mg/kg x 1 days, group G, Day 7, Cp Mouse Efficacy 2): 185696 RLU
- RLU Raw (15 mg/kg x 1 days, group G, Day 8, Cp Mouse Efficacy 2): 380816 RLU
- RLU Raw (15 mg/kg x 1 days, group G, Day 9, Cp Mouse Efficacy 2): 630928 RLU
- RLU Raw (15 mg/kg x 1 days, group G, Day 10, Cp Mouse Efficacy 2): 2410000 RLU
- RLU Raw (15 mg/kg x 1 days, group G, Day 13, Cp Mouse Efficacy 2): 338704 RLU
- RLU Raw (15 mg/kg x 1 days, group G, Day 15, Cp Mouse Efficacy 2): 51520 RLU
- RLU Raw (15 mg/kg x 1 days, group G, Day 17, Cp Mouse Efficacy 2): 66336 RLU
- RLU Raw (15 mg/kg x 1 days, group G, Day 20, Cp Mouse Efficacy 2): 43392 RLU
- RLU standardized by fecal weight (15 mg/kg x 1 days, group G, day 6 p.i., Cp Mouse Efficacy 2): 18713 RLU
- RLU standardized by fecal weight (15 mg/kg x 1 days, group G, day 7 p.i., Cp Mouse Efficacy 2): 21344 RLU
- RLU standardized by fecal weight (15 mg/kg x 1 days, group G, day 8 p.i., Cp Mouse Efficacy 2): 110381 RLU
- RLU standardized by fecal weight (15 mg/kg x 1 days, group G, day 9 p.i., Cp Mouse Efficacy 2): 122510 RLU
- RLU standardized by fecal weight (15 mg/kg x 1 days, group G, day 10 p.i., Cp Mouse Efficacy 2): 529670 RLU
- RLU standardized by fecal weight (15 mg/kg x 1 days, group G, day 13 p.i., Cp Mouse Efficacy 2): 94084 RLU
- RLU standardized by fecal weight (15 mg/kg x 1 days, group G, day 15 p.i., Cp Mouse Efficacy 2): 6869 RLU
- RLU standardized by fecal weight (15 mg/kg x 1 days, group G, day 17 p.i., Cp Mouse Efficacy 2): 20102 RLU
- RLU standardized by fecal weight (15 mg/kg x 1 days, group G, day 20 p.i., Cp Mouse Efficacy 2): 10091 RLU
- RLU Raw (15 mg/kg x 2 days, group H, Day 6, Cp Mouse Efficacy 2): 505536 RLU
- RLU Raw (15 mg/kg x 2 days, group H, Day 7, Cp Mouse Efficacy 2): 606112 RLU
- RLU Raw (15 mg/kg x 2 days, group H, Day 8, Cp Mouse Efficacy 2): 78272 RLU
- RLU Raw (15 mg/kg x 2 days, group H, Day 9, Cp Mouse Efficacy 2): 75472 RLU
- RLU Raw (15 mg/kg x 2 days, group H, Day 10, Cp Mouse Efficacy 2): 77152 RLU
- RLU Raw (15 mg/kg x 2 days, group H, Day 13, Cp Mouse Efficacy 2): 20208 RLU
- RLU Raw (15 mg/kg x 2 days, group H, Day 15, Cp Mouse Efficacy 2): 12176 RLU
- RLU Raw (15 mg/kg x 2 days, group H, Day 17, Cp Mouse Efficacy 2): 9280 RLU
- RLU Raw (15 mg/kg x 2 days, group H, Day 20, Cp Mouse Efficacy 2): 10848 RLU
- RLU standardized by fecal weight (15 mg/kg x 2 days, group H, day 6 p.i., Cp Mouse Efficacy 2): 118950 RLU
- RLU standardized by fecal weight (15 mg/kg x 2 days, group H, day 7 p.i., Cp Mouse Efficacy 2): 269383 RLU
- RLU standardized by fecal weight (15 mg/kg x 2 days, group H, day 8 p.i., Cp Mouse Efficacy 2): 14630 RLU
- RLU standardized by fecal weight (15 mg/kg x 2 days, group H, day 9 p.i., Cp Mouse Efficacy 2): 18635 RLU
- RLU standardized by fecal weight (15 mg/kg x 2 days, group H, day 10 p.i., Cp Mouse Efficacy 2): 18370 RLU
- RLU standardized by fecal weight (15 mg/kg x 2 days, group H, day 13 p.i., Cp Mouse Efficacy 2): 1962 RLU
- RLU standardized by fecal weight (15 mg/kg x 2 days, group H, day 15 p.i., Cp Mouse Efficacy 2): 2387 RLU
- RLU standardized by fecal weight (15 mg/kg x 2 days, group H, day 17 p.i., Cp Mouse Efficacy 2): 1160 RLU
- RLU standardized by fecal weight (15 mg/kg x 2 days, group H, day 20 p.i., Cp Mouse Efficacy 2): 4094 RLU
- RLU Raw (15 mg/kg x 3 days, group I, Day 6, Cp Mouse Efficacy 2): 932240 RLU
- RLU Raw (15 mg/kg x 3 days, group I, Day 7, Cp Mouse Efficacy 2): 627218 RLU
- RLU Raw (15 mg/kg x 3 days, group I, Day 8, Cp Mouse Efficacy 2): 396768 RLU
- RLU Raw (15 mg/kg x 3 days, group I, Day 9, Cp Mouse Efficacy 2): 37984 RLU
- RLU Raw (15 mg/kg x 3 days, group I, Day 10, Cp Mouse Efficacy 2): 6160 RLU
- RLU Raw (15 mg/kg x 3 days, group I, Day 13, Cp Mouse Efficacy 2): 1280 RLU
- RLU Raw (15 mg/kg x 3 days, group I, Day 15, Cp Mouse Efficacy 2): 656 RLU
- RLU Raw (15 mg/kg x 3 days, group I, Day 17, Cp Mouse Efficacy 2): 496 RLU
- RLU Raw (15 mg/kg x 3 days, group I, Day 20, Cp Mouse Efficacy 2): 864 RLU
